Experimental data as given in patent US20250145600A1, “2-((4-((S)-2-(4-CHLORO-2-FLUOROPHENYL)-2-METHYLBENZO[D][1,3]DIOXOL-4-YL)PIPERIDIN-1-YL)METHYL)-1-(((S)-OXETAN-2-YL)METHYL)-1H-IMIDAZOLE DERIVATIVES AS ACTIVATORS OF THE GLP1 RECEPTOR FOR THE TREATMENT OF OBESITY” (Novartis AG, priority 2022, published 2025).

Molecular target: human GLP1R (Homo sapiens, UniProt P43220)
Assay: Human GLP1R DERET internalization assay
Type: cell-based
Conditions: HEK293-SNAP-hGLP1R-GloSensor cells; for EC50: top concentration 30 μM; for Emax: relative to GLP1(7-36)
Description: Compounds of formula (I) according to the invention were tested in the following cellular assays that measure the intracellular cAMP concentration, beta-arrestin recruitment and receptor internalization. The cAMP is generated by the activation of GLP1R. The extent to which the GLP1R is internalized into the cell and away from the plasma membrane following activation is also shown in Table 2. EC50 for each assay is defined as the concentration of the compound that leads to half of the maximum response (after baseline correction). Emax is defined as the maximum response observed for the test compound, normalized to the maximum response observed for the endogenous ligand (GLP1(7-36)) to GLP1R.
Human GLP1R DERET Internalization Assay
The extent to which agonists internalize the human GLP1R was determined based on an optimized version of a RealTime FRET-based ‘DERET’ (Dissociation Enhanced Resonance Energy Transfer) assay. The technology relies on labeling of the SNAP-tagged GPCR with a SNAP-Lumi-Terbium (donor fluorophore, Cisbio, cat #SSNPTBD). The compounds are incubated with the cells over-expressing the GPCR of interest in the presence of an excess of fluorescein (acceptor fluorophore). When the GPCR is on the cell surface, the donor signal is quenched by the acceptor and the donor/acceptor ratio is low. As the GPCR internalizes, the donor signal is no longer quenched, and the acceptor is no longer excited so the donor/acceptor ratio increases.
HEK293-SNAP-hGLP1R-GloSensor cells (stably overexpressing SNAP-tagged hGLP1R) were seeded overnight in white 384-well poly-D-Lysine coated plates (Greiner Bio One, cat #781945) in regular DMEM growth medium (Gibco, cat #11965-092, 10% heat-inactivated FBS, 10 mM HEPES, 1× penicillin/streptomycin, 0.5 mg/mL geneticin (Gibco, cat #10131-035) and 0.25 mg/mL hygromycin B (Invitrogen, cat #10687010). On the assay day, cell medium was removed and 100 nM SNAP-Lumi-Tb reagent was added in Opti-MEM solution. The cells were incubated at 37° C. for 1 h. Cells were washed using a plate washer in assay buffer [1×HBSS (10× Gibco, cat #14065-056), 20 mM Hepes (Gibco, cat #15630-080), 1 mM CaCl2 (Fluka, cat #21114-1L), 1 mM MgCl2 (Ambion, cat #AM9530G) pH7.4], and 20 μL buffer with 0.1% BSA was added to each well. After leaving cells to equilibrate for […] at 37° C., 10 μL of Fluorescein (sodium salt, Sigma, cat #F6377, diluted in buffer) was added at 25 μM final concentration. To generate triplicate dose response curves, compounds were serially diluted 3-fold in assay buffer, then added to the cell assay plate to a final volume of 40 μL and final top concentrations starting at 30 μM. In the same plate and assay buffer as the tested compounds, a GLP1 (7-36) peptide (Bachem, cat #H-6795) control curve was included at a final top concentration of 1 μM in order to establish EC100. EC0 wells with buffer only were also included. The plate FRET fluorescence was measured immediately using a Perkin Elmer Envision with LANCE/DELFIA D400 single mirror, excitation filter X320, and emission filters M615_203 (donor emission) and M515 (acceptor emission), and then measured every 30 min. […] Plates were kept at 37° C. between reads. Data was expressed as the ratio of donor/acceptor emissions using Microsoft Excel and plotted in GraphPad Prism. In order to determine EC50 and Emax for internalization, data was calculated and expressed as percent of the GLP1 (7-36) EC100 control wells: [(sample signal−mean EC0 signal)/(mean EC100 of GLP1 (7-36) signal−mean EC0 signal)]*100 using Microsoft Excel. Curve fitting for EC50 determinations was performed using GraphPad Prism. The 4-parameter logistic model, Hill slope was used:
where Y is the functional response; X is the compound concentration; bottom is A0 or the minimum value (at 0 dose); top is Ainf or the maximum value (at infinite dose); EC50 is the point of inflection (i.e. the point on the sigmoid shaped curve halfway between A0 and Ainf). […]

human GLP1R, sequence (P43220 24-463): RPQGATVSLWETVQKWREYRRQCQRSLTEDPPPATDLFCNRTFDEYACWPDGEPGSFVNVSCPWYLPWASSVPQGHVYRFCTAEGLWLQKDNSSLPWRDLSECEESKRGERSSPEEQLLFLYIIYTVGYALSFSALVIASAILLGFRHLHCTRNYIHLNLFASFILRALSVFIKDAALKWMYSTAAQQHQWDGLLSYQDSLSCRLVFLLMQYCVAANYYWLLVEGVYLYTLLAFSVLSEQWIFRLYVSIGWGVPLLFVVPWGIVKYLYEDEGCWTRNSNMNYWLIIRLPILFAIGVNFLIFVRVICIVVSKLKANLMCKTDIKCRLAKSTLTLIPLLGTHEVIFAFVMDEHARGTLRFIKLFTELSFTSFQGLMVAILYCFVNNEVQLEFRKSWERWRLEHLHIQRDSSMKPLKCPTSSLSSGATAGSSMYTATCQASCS

Row | Structure (SMILES) | EC50 [µM] | Emax [%]
1 | Cc1nc(CN2CCC(c3cccc4c3O[C@@](C)(c3ccc(Cl)cc3F)O4)CC2)n(C[C@@H]2CCO2)c1-c1nc(C(=O)O)c(C)o1 [Compound C-1, 2-(2-((4-((S)-2-(4-chloro-2-fluorophenyl)-2-methylbenzo[d][1,3]dioxol-4-yl)piperidin-1-yl)methyl)-4-methyl-1-(((S)-oxetan-2-yl)methyl)-1H-imidazol-5-yl)-5-methyloxazole-4-carboxylic acid] | > 30 | 8
2 | C[C@]1(c2ccc(Cl)cc2F)Oc2cccc(C3CCN(Cc4nc(C(F)(F)F)c(-c5nc(C(=O)O)co5)n4C[C@@H]4CCO4)CC3)c2O1 [Compound C-4, 2-(2-((4-((S)-2-(4-chloro-2-fluorophenyl)-2-methylbenzo[d][1,3]dioxol-4-yl)piperidin-1-yl)methyl)-1-(((S)-oxetan-2-yl)methyl)-4-(trifluoromethyl)-1H-imidazol-5-yl)oxazole-4-carboxylic acid] | > 30 | 1
3 | CCc1nc(CN2CCC(c3cccc4c3O[C@@](C)(c3ccc(Cl)cc3F)O4)CC2)n(C[C@@H]2CCO2)c1-c1nc(C(=O)O)co1 [Compound C-5, 2-(2-((4-((S)-2-(4-chloro-2-fluorophenyl)-2-methylbenzo[d][1,3]dioxol-4-yl)piperidin-1-yl)methyl)-4-ethyl-1-(((S)-oxetan-2-yl)methyl)-1H-imidazol-5-yl)oxazole-4-carboxylic acid] | > 30 | 6
4 | CCc1nc(CN2CCC(c3cccc4c3O[C@@](C)(c3ccc(Cl)cc3F)O4)CC2)n(C[C@H]2CCO2)c1-c1nc(C(=O)O)co1 [Compound C-7, 2-(2-((4-((S)-2-(4-chloro-2-fluorophenyl)-2-methylbenzo[d][1,3]dioxol-4-yl)piperidin-1-yl)methyl)-4-ethyl-1-(((R)-oxetan-2-yl)methyl)-1H-imidazol-5-yl)oxazole-4-carboxylic acid] | 0.03 | 51
5 | Cc1nc(CN2CCC(c3cccc4c3O[C@@](C)(c3ccc(Cl)cc3F)O4)CC2)n(C[C@@H]2CCO2)c1-c1nc(C(=O)O)co1 [Compound C-9, 2-(2-((4-((S)-2-(4-chloro-2-fluorophenyl)-2-methylbenzo[d][1,3]dioxol-4-yl)piperidin-1-yl)methyl)-4-methyl-1-(((S)-oxetan-2-yl)methyl)-1H-imidazol-5-yl)oxazole-4-carboxylic acid] | > 30 | 11
6 | CCc1oc(-c2c(C)nc(CN3CCC(c4cccc5c4O[C@@](C)(c4ccc(Cl)cc4F)O5)CC3)n2C[C@@H]2CCO2)nc1C(=O)O [Compound C-10, 2-(2-((4-((S)-2-(4-chloro-2-fluorophenyl)-2-methylbenzo[d][1,3]dioxol-4-yl)piperidin-1-yl)methyl)-4-methyl-1-(((S)-oxetan-2-yl)methyl)-1H-imidazol-5-yl)-5-ethyloxazole-4-carboxylic acid] | > 30 | 7
7 | Cc1oc(-c2nc(CN3CCC(c4cccc5c4O[C@@](C)(c4ccc(Cl)cc4F)O5)CC3)n(C[C@@H]3CCO3)c2C)nc1C(=O)O [Compound C-12, 2-(2-((4-((S)-2-(4-chloro-2-fluorophenyl)-2-methylbenzo[d][1,3]dioxol-4-yl)piperidin-1-yl)methyl)-5-methyl-1-(((S)-oxetan-2-yl)methyl)-1H-imidazol-4-yl)-5-methyloxazole-4-carboxylic acid] | > 30 | 45
8 | Cc1c(-c2nc(C(=O)O)co2)nc(CN2CCC(c3cccc4c3O[C@@](C)(c3ccc(Cl)cc3F)O4)CC2)n1C[C@@H]1CCO1 [Compound C-13, 2-(2-((4-((S)-2-(4-chloro-2-fluorophenyl)-2-methylbenzo[d][1,3]dioxol-4-yl)piperidin-1-yl)methyl)-5-methyl-1-(((S)-oxetan-2-yl)methyl)-1H-imidazol-4-yl)oxazole-4-carboxylic acid] | 1.28 | 42
9 | Cc1c(-c2nc(C(F)(F)F)c(C(=O)O)o2)nc(CN2CCC(c3cccc4c3O[C@@](C)(c3ccc(Cl)cc3F)O4)CC2)n1C[C@@H]1CCO1 [Compound C-14, 2-(2-((4-((S)-2-(4-chloro-2-fluorophenyl)-2-methylbenzo[d][1,3]dioxol-4-yl)piperidin-1-yl)methyl)-5-methyl-1-(((S)-oxetan-2-yl)methyl)-1H-imidazol-4-yl)-4-(trifluoromethyl)oxazole-5-carboxylic acid] | > 30 | 20
10 | Cc1c(-c2cnc(C(=O)O)o2)nc(CN2CCC(c3cccc4c3O[C@@](C)(c3ccc(Cl)cc3F)O4)CC2)n1C[C@@H]1CCO1 [Compound C-16, 5-(2-((4-((S)-2-(4-chloro-2-fluorophenyl)-2-methylbenzo[d][1,3]dioxol-4-yl)piperidin-1-yl)methyl)-5-methyl-1-(((S)-oxetan-2-yl)methyl)-1H-imidazol-4-yl)oxazole-2-carboxylic acid] | 2.94 | 50
11 | Cc1c(-c2cc(C(=O)O)n(C)n2)nc(CN2CCC(c3cccc4c3O[C@@](C)(c3ccc(Cl)cc3F)O4)CC2)n1C[C@@H]1CCO1 [Compound C-17, 3-(2-((4-((S)-2-(4-chloro-2-fluorophenyl)-2-methylbenzo[d][1,3]dioxol-4-yl)piperidin-1-yl)methyl)-5-methyl-1-(((S)-oxetan-2-yl)methyl)-1H-imidazol-4-yl)-1-methyl-1H-pyrazole-5-carboxylic acid] | > 30 | 6
12 | Cc1c(-c2coc(C(=O)O)n2)nc(CN2CCC(c3cccc4c3O[C@@](C)(c3ccc(Cl)cc3F)O4)CC2)n1C[C@@H]1CCO1 [Compound C-18, 4-(2-((4-((S)-2-(4-chloro-2-fluorophenyl)-2-methylbenzo[d][1,3]dioxol-4-yl)piperidin-1-yl)methyl)-5-methyl-1-(((S)-oxetan-2-yl)methyl)-1H-imidazol-4-yl)oxazole-2-carboxylic acid] | 2.38 | 86
13 | Cc1cc(-c2nc(CN3CCC(c4cccc5c4O[C@@](C)(c4ccc(Cl)cc4F)O5)CC3)n(C[C@@H]3CCO3)c2C)oc1C(=O)O [Compound C-19, 5-(2-((4-((S)-2-(4-chloro-2-fluorophenyl)-2-methylbenzo[d][1,3]dioxol-4-yl)piperidin-1-yl)methyl)-5-methyl-1-(((S)-oxetan-2-yl)methyl)-1H-imidazol-4-yl)-3-methylfuran-2-carboxylic acid] | > 30 | 34
14 | Cc1nc(CN2CCC(c3cccc4c3O[C@@](C)(c3ccc(Cl)cc3F)O4)CC2)n(C[C@@H]2CCO2)c1-c1coc(C(=O)O)n1 [Compound C-20, 4-(2-((4-((S)-2-(4-chloro-2-fluorophenyl)-2-methylbenzo[d][1,3]dioxol-4-yl)piperidin-1-yl)methyl)-4-methyl-1-(((S)-oxetan-2-yl)methyl)-1H-imidazol-5-yl)oxazole-2-carboxylic acid] | > 30 | 5
15 | Cc1nc(CN2CCC(c3cccc4c3O[C@@](C)(c3ccc(Cl)cc3F)O4)CC2)n(C[C@@H]2CCO2)c1-c1cc(C(=O)O)n(C)n1 [Compound C-21, 3-(2-((4-((S)-2-(4-chloro-2-fluorophenyl)-2-methylbenzo[d][1,3]dioxol-4-yl)piperidin-1-yl)methyl)-4-methyl-1-(((S)-oxetan-2-yl)methyl)-1H-imidazol-5-yl)-1-methyl-1H-pyrazole-5-carboxylic acid] | > 30 | 2
